Reference: patent publication US20250222028A1, “ENGINEERED IMMUNE CELL PLATFORM” (Cancer Research Technology Limited, priority 2022, published 2025)

Columns and labels:
RMA/S tumour cells [1] = assay: LDH killing assay, murine NK cells with NK-sensitive RMA/S cells; assay type: cell-based; conditions: 5 μM GANT61 vs carrier control
Experimental: (§1) FIG. 4. Gli1 is important for specific tumour cell killing by murine NK cells. (A) NK cells were isolated from WT C57BL/6 mice and were treated using either the Gli1/Gli2 inhibitor GANT61 (squares) or carrier control (circles). LDH killing assays (left panel) and VITAL assays (right panel) were performed to assess specific cell killing of NK-sensitive RMA/S tumour cells. Left panel: Representative data of n=3 independent experiments. Right panel: data from 2 individual mice per genotype. (B) To specifically investigate the contribution of Gli1 towards NK cell effector function, LDH killing assays (left panel) and VITAL assays (right panel) were performed using NK cells isolated from both WT (circles) and Gli1 knockout (KO, squares) mice. Left panel: representative data from n=2 independent experiments. Right panel: data from 2 individual mice per genotype.
(§2) It was hypothesised that the therapeutic effect of L-type Cav channel agonists may be conserved between CD8+ T and NK cells. To investigate this hypothesis, NK cells were isolated from spleens of C57BL/6 wildtype mice using a MACS negative isolation protocol, and expanded in vitro for 7 days in the presence of 500 IU/L IL-2. […]

RMA/S tumour cells [2] = assay: VITAL assay, murine NK cells with NK-sensitive RMA/S cells; assay type: cell-based; conditions: 5 μM GANT61 vs carrier control
Experimental: as §1, §2

[3] = system: B cells (as target cells); assay: LDH assay, murine cytotoxic CD4+ T cells (OT-II) with B cells as target cells; assay type: cell-based; conditions: 5 μM, 24 h prior to co-culture, vs carrier control
Experimental: FIG. 8. Gli1 mediates specific cell killing by murine cytotoxic CD4+ T cells. Cytotoxic CD4+ T cells were generated from OT-II mice and treated with 5 μM Gli1/Gli2 inhibitor GANT61 (grey) or carrier control (black) for 24 hours before an LDH assay was performed to assess specific cell killing. Data is from n=3 independent experiments.
Experiments 1, 2, 3 and 4 identify Gli1 transcription as a mediator of specific cell killing in CD8+ CTLs and in NK cells, in humans and in mice. To investigate whether Gli1 also plays a role in driving the effector function of CD4+ T cells, cells were isolated from the spleens of OT-II mice and CTLs were generated. Cells were treated using GANT61 at a concentration of 5 μM or carrier control, 24 h prior to being co-cultured with B cells (as target cells) at the effector:target ratios indicated in FIG. 8.

cytotoxic CD4+ T cells = assay: Flow cytometric analysis of Granzyme B and IFNγ in cytotoxic CD4+ T cells; assay type: cell-based, mice; conditions: 5 μM, 24 h
Experimental: FIG. 9. GzmB content and IFNγ secretion are unaffected by Gli inhibition in cytotoxic CD4+ T cells. Cytotoxic CD4+ cells were generated from OT-II mice and treated with 5 μM GANT61 or carrier control on day 7 for 24 h prior to flow cytometric analysis of Granzyme B (GzmB) and IFNγ levels on day 8. (A) Representative flow cytometry plots in unstimulated (top panel) or restimulated CD4+ T cells (bottom panel). (B) Quantification of steady state GzmB levels and IFNγ levels upon restimulation. Data is from n=3 independent experiments.
(§3) To investigate this further, the effect of GANT61 inhibition on Granzyme B and IFNγ secretion was investigated. Cytotoxic CD4+ cells were generated from OT-II mice and treated with 5 μM GANT61 or carrier control on day 7 for 24 h prior to flow cytometric analysis of Granzyme B (GzmB) and IFNγ levels on day 8. NK cells were isolated from C57BL/6 mice and treated with 10 μM GANT61 or carrier control (EtOH) overnight (˜18 hours) prior to analysis of intracellular granzyme B (GzmB) and IFNγ expression by flow cytometry. In both cytotoxic CD4+ cells (FIG. 9) and NK cells (FIG. 10), the GzmB content and IFNγ secretion were unaffected by Gli inhibition.

NK cells = assay: Flow cytometric analysis of Granzyme B and IFNγ in NK cells; assay type: cell-based, mice; conditions: 10 μM, overnight (~18 hours)
Experimental: FIG. 10. GzmB content and IFNγ secretion are unaffected by Gli inhibition in NK cells. NK cells were isolated from C57BL/6 mice and treated with 10 μM GANT61 or carrier control (EtOH) overnight (˜18 hours) prior to analysis of intracellular granzyme B (GzmB) and IFNγ expression by flow cytometry. (A) Representative flow cytometry plots. (B) Quantification of flow cytometry plots. Data is from n=2 mice, 1 independent experiment.
as §3

K562 target cells = assay: Flow-cytometry based killing assay, human Vγ9Vδ2 gammadelta T cells with K562 target cells; assay type: cell-based; conditions: pre-treated overnight with GANT61, co-culture 24 h
Experimental: FIG. 12. GLI1 is important for tumour cell killing of human Vγ9Vδ2 gammadelta T cells and treatment with L-type voltage gated Ca2+ channel agonist FPL 64176 increases killing capacity. PBMCs were isolated from Buffy Coats of healthy donors using SepMate PBMC Isolation Tubes. Vγ9Vδ2 expansion was induced by plating PBMCs at 1×10^6 concentration with 1 μM of Zoledronate in the presence of 100 IU/mL IL-2 and 120 IU/mL IL-15. Cells were split every 2-3 days from day 6 until day 20. Killing assays were conducted between day 16-20. (A) Vγ9Vδ2 T lymphocytes were incubated with Gli1/2 inhibitor GANT61 or EToH (carrier control) overnight and subsequently co-cultured with K562 target cells for 24 h at the indicated effector to target ratios and subjected to a flow-cytometry based killing assay. n=1 individual donor. (B) Vγ9Vδ2 cells were pre-incubated with 10 μM FPL 64176 or EToH (carrier control) before being co-cultured with K562 target cells at indicated effector to target ratios and subjected to a flowcytometric cytotoxicity assay in the presence of 10 μM FPL 64176 or EToH (carrier control). Killing was assessed after 24 hours. Tumour cell killing normalised to carrier treated cells at a 10:1 effector:target ratio. n=4 individual healthy donors from 2 independent experiments. […]

P815 target cells = assay type: cell-based, human
Experimental: FIG. 15. GLI inhibitor GANT61 reduces tumour cell killing of human CD8+ cytotoxic T lymphocytes. PBMCs were isolated from Buffy Coats of healthy donors using SepMate PBMC Isolation Tubes. CD8+ T cells were isolated using negative selection (Miltenyi Biotec, CD8+ T Cell Isolation Kit) and plated with ImmunoCult™ Human CD3/CD28/CD2 T Cell Activator at 25 μl/mL in TexMACS cell culture media supplemented with 1001 U/mL human IL-2 and 100 U/ml Penicillin/Streptomycin. Human CTLs were incubated with Gli1/2 inhibitor GANT61 or EToH (carrier control) overnight and subsequently co-cultured with anti-CD3ε pulsed P815 target cells for 3 h at the indicated effector to target ratios and subjected to an LDH cytotoxicity assay. (A) Representative graph, (B) Quantification of N=3 donors normalised to killing of carrier treated cells at a 10:1 effector:target ratio. Error bars indicate SD. n=3 donors from 2 independent experiments. It is also known that Hh signalling in murine CD8+ T cells is not inducible via administration of extracellular Hh ligands (de la Roche et al. (2013)). Instead, Hh induction occurs via the modulation of L-type voltage-gated calcium (Cav) channels downstream of the T cell receptor. For example, Hanna et al. (2021) report that nifedipine-sensitive Cavs control Gli1 induction in naïve CD8+ T cells and CD8+ CTLs following TCR stimulation. […]

## CN(C)c1ccccc1CN1CCCN(Cc2ccccc2N(C)C)C1c1ccncc1 [GANT61]
RMA/S tumour cells [1]
  decrease in cell killing: ~15%
RMA/S tumour cells [2]
  specific tumour cell killing: greatly reduced
[3]
  reduction in specific cell killing: 50%
Cytotoxic CD4+ T cells
  GzmB content: unaffected
  IFNγ secretion: unaffected
NK cells
  GzmB content: unaffected
  IFNγ secretion: unaffected
K562 target cells
  killing capacity of K562 target cells by gammadelta T cells: reduced killing capacity
P815 target cells
  tumour cell killing of human CD8+ cytotoxic lymphocytes: reduces
